Assays:
D(2) dopamine receptor [1] = biological target: T1, D(2) dopamine receptor (Homo sapiens, UniProt P14416); assay: Antagonist activity at dopamine D2 receptor (unknown origin) transfected in CHO cell membranes assessed as inhibition of forskolin-stimulated cAMP level after 10 mins by flash plate assay in presence of dopamine; type: functional, cell-based
D(2) dopamine receptor [2] = biological target: T1, D(2) dopamine receptor; assay: Displacement of [3H]N-methylspiperone from dopamine D2 receptor (unknown origin) expressed in CHO cell membranes after 60 mins
D(1A) dopamine receptor [3] = biological target: T2, D(1A) dopamine receptor (Homo sapiens, UniProt P21728); assay: Agonist activity at dopamine D1 receptor (unknown origin) transfected in CHO cell membranes assessed as increase in cAMP level after 8 mins by flash plate assay in presence of dopamine; type: functional, cell-based
T2 sequence (P21728 whole entry): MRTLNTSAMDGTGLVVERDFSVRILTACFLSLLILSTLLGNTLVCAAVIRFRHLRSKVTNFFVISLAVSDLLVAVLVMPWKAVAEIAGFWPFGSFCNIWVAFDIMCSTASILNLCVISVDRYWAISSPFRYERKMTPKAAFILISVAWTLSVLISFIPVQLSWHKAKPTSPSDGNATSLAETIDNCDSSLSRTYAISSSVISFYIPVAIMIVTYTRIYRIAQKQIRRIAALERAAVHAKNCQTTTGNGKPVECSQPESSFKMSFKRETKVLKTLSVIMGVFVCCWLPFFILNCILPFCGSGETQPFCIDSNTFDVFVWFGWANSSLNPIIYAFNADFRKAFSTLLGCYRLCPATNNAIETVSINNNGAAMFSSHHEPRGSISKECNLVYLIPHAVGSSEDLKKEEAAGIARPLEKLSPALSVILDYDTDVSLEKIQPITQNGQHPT

D(1A) dopamine receptor [4] = biological target: T2, D(1A) dopamine receptor; assay: Displacement of [3H]SCH23390 from dopamine D1 receptor (unknown origin) expressed in CHO cell membranes after 60 mins
Mus musculus [5] = assay: In vivo receptor occupancy of dopamine D1 receptor in CD1 mouse striatum assessed as inhibition of [3H]SCH23390 binding at 10 mg/kg, sc after 15 mins by scintillation counting analysis; type: functional; conditions: route subcutaneous
Cytochrome P450 2C9 = Cytochrome P450 2C9 (Homo sapiens, UniProt P11712); assay: Inhibition of CYP2C9 (unknown origin); type: ADME
Cytochrome P450 2C9, sequence (P11712 whole entry): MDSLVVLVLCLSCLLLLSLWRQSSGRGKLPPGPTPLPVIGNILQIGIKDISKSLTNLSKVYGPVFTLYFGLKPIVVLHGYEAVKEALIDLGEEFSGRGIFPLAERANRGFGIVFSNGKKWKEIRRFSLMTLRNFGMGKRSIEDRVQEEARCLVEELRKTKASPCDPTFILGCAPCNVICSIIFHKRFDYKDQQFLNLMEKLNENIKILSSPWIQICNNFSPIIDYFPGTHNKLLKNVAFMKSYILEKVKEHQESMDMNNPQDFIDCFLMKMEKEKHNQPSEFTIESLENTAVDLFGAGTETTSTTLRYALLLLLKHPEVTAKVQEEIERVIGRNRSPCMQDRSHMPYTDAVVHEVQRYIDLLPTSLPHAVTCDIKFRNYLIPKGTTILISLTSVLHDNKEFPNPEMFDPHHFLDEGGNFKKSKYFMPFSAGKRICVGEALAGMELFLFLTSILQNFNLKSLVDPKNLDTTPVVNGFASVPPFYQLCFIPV

Cytochrome P450 3A4 = Cytochrome P450 3A4 (Homo sapiens, UniProt P08684); assay: Inhibition of CYP3A4 (unknown origin); type: ADME
Cytochrome P450 3A4, sequence (P08684 whole entry): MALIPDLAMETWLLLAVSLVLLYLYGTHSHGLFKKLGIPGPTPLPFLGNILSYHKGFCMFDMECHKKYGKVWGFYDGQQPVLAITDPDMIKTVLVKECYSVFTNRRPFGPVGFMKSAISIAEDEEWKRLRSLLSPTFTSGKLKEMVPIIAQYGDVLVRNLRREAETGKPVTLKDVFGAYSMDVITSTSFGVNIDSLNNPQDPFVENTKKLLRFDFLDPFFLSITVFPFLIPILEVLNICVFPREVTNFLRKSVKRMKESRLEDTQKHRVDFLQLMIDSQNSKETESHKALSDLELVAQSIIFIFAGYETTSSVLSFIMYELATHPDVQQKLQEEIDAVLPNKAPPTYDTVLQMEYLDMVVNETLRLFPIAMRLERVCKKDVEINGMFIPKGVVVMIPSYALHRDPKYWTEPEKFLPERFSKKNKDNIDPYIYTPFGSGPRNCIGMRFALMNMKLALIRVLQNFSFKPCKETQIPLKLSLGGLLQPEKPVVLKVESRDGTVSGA

Cytochrome P450 1A2 = biological target: T3, Cytochrome P450 1A2 (Homo sapiens, UniProt P05177); assay: Inhibition of CYP1A2 (unknown origin); type: ADME
T3 sequence (P05177 whole entry): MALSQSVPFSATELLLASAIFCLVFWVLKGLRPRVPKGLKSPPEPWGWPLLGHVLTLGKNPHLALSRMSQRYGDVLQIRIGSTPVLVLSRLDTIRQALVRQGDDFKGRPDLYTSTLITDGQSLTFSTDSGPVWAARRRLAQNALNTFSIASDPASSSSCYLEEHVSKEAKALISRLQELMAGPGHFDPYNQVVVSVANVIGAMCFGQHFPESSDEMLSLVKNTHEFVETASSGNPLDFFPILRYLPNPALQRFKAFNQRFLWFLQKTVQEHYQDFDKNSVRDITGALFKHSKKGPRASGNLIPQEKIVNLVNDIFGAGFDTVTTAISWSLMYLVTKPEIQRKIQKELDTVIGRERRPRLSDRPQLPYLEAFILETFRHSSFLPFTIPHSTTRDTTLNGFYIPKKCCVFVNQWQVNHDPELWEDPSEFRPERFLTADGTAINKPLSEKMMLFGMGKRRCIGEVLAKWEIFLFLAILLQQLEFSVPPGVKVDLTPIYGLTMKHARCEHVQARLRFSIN

Cytochrome P450 2D6 = Cytochrome P450 2D6 (Homo sapiens, UniProt P10635); assay: Inhibition of CYP2D6 (unknown origin); type: ADME
Cytochrome P450 2D6, sequence (P10635 whole entry): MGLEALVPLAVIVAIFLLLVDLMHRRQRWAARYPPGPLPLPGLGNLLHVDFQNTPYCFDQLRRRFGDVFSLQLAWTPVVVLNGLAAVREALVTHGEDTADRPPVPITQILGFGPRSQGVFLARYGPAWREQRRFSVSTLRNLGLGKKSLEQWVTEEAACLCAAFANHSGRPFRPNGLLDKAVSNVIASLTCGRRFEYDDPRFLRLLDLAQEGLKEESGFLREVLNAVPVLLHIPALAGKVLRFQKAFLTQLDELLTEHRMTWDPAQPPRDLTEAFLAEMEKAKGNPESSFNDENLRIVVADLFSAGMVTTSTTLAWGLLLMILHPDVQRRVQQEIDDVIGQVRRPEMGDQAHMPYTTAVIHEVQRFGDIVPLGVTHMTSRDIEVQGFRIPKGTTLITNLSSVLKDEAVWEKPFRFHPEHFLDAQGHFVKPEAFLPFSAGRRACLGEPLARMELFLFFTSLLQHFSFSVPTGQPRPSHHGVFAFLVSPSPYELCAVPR

Cytochrome P450 2C19 = Cytochrome P450 2C19 (Homo sapiens, UniProt P33261); assay: Inhibition of CYP2C19 (unknown origin); type: ADME
Cytochrome P450 2C19, sequence (P33261 whole entry): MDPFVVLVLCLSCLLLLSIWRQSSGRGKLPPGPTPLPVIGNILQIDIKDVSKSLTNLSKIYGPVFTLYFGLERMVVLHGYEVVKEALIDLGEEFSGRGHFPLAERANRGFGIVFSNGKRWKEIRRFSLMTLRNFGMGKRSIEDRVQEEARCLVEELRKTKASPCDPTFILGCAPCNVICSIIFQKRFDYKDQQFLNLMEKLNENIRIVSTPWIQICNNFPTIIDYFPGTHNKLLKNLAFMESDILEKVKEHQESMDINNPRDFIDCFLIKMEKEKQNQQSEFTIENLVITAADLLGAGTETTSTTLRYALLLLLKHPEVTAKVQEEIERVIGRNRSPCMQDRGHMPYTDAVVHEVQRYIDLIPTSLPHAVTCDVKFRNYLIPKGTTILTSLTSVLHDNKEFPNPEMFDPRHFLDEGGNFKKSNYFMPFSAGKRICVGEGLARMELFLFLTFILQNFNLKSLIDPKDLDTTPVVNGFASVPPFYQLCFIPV

Mus musculus [6] = assay: In vivo receptor occupancy of dopamine D2 receptor in CD1 mouse striatum assessed as inhibition of [3H]N-methylspiperone binding at 10 mg/kg, sc after 15 mins by scintillation counting analysis; type: functional; conditions: route subcutaneous

T1 sequence (P14416 whole entry): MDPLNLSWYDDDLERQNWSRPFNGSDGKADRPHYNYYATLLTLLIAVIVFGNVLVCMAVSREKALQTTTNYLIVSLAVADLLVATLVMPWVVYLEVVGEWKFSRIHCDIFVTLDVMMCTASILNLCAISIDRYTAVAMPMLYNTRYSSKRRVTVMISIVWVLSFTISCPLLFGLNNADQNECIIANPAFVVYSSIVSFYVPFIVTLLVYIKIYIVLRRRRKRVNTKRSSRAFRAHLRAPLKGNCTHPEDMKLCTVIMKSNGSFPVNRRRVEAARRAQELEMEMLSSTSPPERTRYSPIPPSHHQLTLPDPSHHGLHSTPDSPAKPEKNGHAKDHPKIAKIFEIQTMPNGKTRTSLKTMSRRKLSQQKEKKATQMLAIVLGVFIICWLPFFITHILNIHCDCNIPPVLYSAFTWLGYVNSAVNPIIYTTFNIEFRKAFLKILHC

| Compound | IC50 (D(2) dopamine receptor [1]) | Ki (D(2) dopamine receptor [2]) | EC50 (D(1A) dopamine receptor [3]; read-out: EC50) | Ki (D(1A) dopamine receptor [4]) | inhibition (INH) (Cytochrome P450 2C9) | inhibition (INH) (Cytochrome P450 3A4) | inhibition (INH) (Cytochrome P450 1A2) | IC50 (Cytochrome P450 2D6) | inhibition (INH) (Cytochrome P450 2C19) | EC50 (D(1A) dopamine receptor [3]; cho) | Occ (Mus musculus [5]) | Occ (Mus musculus [6]) |
| --- | --- | --- | --- | --- | --- | --- | --- | --- | --- | --- | --- | --- |
| Cc1cc2c(cc1O)[C@H]1C[C@](O)(c3ccc(Cl)cc3)CCN1CC2 | 150 nM | 132 nM | 750 nM | 45.9 nM |  |  |  |  |  |  |  |  |
| COc1ccc2c(c1)CCN1CC[C@](O)(c3ccc(Cl)cc3)C[C@H]21 | 1010 nM | 195 nM |  | 252 nM |  |  |  |  |  | Not Active |  |  |
| COc1ccc2c(c1)CCN1CC[C@@](O)(c3ccc(Cl)cc3)C[C@H]21 |  | > 10000 nM |  | 3340 nM |  |  |  |  |  | Not Active |  |  |

Compounds with a lower Ki (D(2) dopamine receptor [2]), results first:

| IC50 (D(2) dopamine receptor [1]) | Ki (D(2) dopamine receptor [2]) | EC50 (D(1A) dopamine receptor [3]; read-out: EC50) | Ki (D(1A) dopamine receptor [4]) | inhibition (INH) (Cytochrome P450 2C9) | inhibition (INH) (Cytochrome P450 3A4) | inhibition (INH) (Cytochrome P450 1A2) | IC50 (Cytochrome P450 2D6) | inhibition (INH) (Cytochrome P450 2C19) | EC50 (D(1A) dopamine receptor [3]; cho) | Compound | Occ (Mus musculus [5]) | Occ (Mus musculus [6]) |
| --- | --- | --- | --- | --- | --- | --- | --- | --- | --- | --- | --- | --- |
|  | 14.8 nM | 8 nM | 4 nM |  |  |  |  |  |  | COc1cc2c(cc1O)[C@H]1C[C@@](O)(c3ccc(Cl)cc3)CCN1CC2 |  |  |
| 6 nM | 4 nM | 5 nM | 2 nM | Not Active | Not Active | Not Active | 840 nM | Not Active |  | COc1cc2c(cc1O)[C@H]1C[C@@](O)(c3ccc(OC(F)(F)F)cc3)CCN1CC2 | 95% | 75% |
| 220 nM | 12.3 nM | 11 nM | 5.5 nM |  |  |  |  |  |  | Cc1cc2c(cc1O)[C@H]1C[C@@](O)(c3ccc(Cl)cc3)CCN1CC2 |  |  |
| 380 nM | 101 nM |  | 244 nM |  |  |  |  |  | Not Active | COc1cc2c(cc1O)[C@H]1C[C@](O)(c3ccc(Cl)cc3)CCN1CC2 |  |  |
